ChEMBL document CHEMBL5113481, “Design, synthesis and biological evaluation of quinoline-2-carbonitrile-based hydroxamic acids as dual tubulin polymerization and histone deacetylases inhibitors” (Eur J Med Chem, 2022)
Active and inactive are the calls of the source. No cut-off for these calls is given here.

Assays:
NCI-N87 = experiment: Antiproliferative activity against human NCI-N87 cells after 72 hrs by CellTiter Glo assay; assay type: functional, cell-based; conditions: NCI-N87, 72 h
HCT-116 = experiment: Antiproliferative activity against human HCT-116 cells after 72 hrs by CellTiter Glo assay; assay type: functional, cell-based; conditions: Homo sapiens, HCT-116; time 72 hrs
K562 = experiment: Antiproliferative activity against human K562 cells after 72 hrs by CellTiter Glo assay; assay type: functional, cell-based; conditions: K562, 72 h
MIA PaCa-2 = experiment: Antiproliferative activity against human MIA PaCa-2 cells after 72 hrs by CellTiter Glo assay; assay type: functional, cell-based; conditions: MIA PaCa-2, 72 h
A549 = experiment: Antiproliferative activity against human A549 cells after 72 hrs by CellTiter Glo assay; assay type: functional, cell-based; conditions: A549, 72 h
MCF7 = experiment: Antiproliferative activity against human MCF7 cells after 72 hrs by CellTiter Glo assay; assay type: functional, cell-based; conditions: MCF7, 72 h
MDA-MB-231 = experiment: Antiproliferative activity against human MDA-MB-231 cells after 72 hrs by CellTiter Glo assay; assay type: functional, cell-based; conditions: MDA-MB-231, 72 h
HT-29 [1] = experiment: Antiproliferative activity against human HT-29 cells after 72 hrs by CellTiter Glo assay; assay type: functional, cell-based; conditions: HT-29, 72 h
HT-29 [2] = experiment: Cell cycle arrest in human HT-29 cells assessed as accumulation of cells in G2/M phase at 0.1 to 5 nM measured after 24 hrs by PI staining based flow cytometry method; assay type: functional; conditions: dose 0.1-5 nM, DDE = dose-dependent effect
HT-29 [3] = experiment: Cell cycle arrest in human HT-29 cells assessed as accumulation of cells in G2/M phase at 5 nM measured after 24 hrs by PI staining based flow cytometry method; assay type: functional
HT-29 [4] = experiment: Induction of mitochondrial dysfunction in human HT-29 cells at 2 nM measured after 48 hrs by JC-1 staining based flow cytometry; assay type: functional, cell-based
Histone deacetylase 8 = biological target: T1, Histone deacetylase 8 (Homo sapiens, UniProt Q9BY41); experiment: Inhibition of HDAC8 (unknown origin) measured by fluorometry assay
T1 sequence (Q9BY41 whole entry): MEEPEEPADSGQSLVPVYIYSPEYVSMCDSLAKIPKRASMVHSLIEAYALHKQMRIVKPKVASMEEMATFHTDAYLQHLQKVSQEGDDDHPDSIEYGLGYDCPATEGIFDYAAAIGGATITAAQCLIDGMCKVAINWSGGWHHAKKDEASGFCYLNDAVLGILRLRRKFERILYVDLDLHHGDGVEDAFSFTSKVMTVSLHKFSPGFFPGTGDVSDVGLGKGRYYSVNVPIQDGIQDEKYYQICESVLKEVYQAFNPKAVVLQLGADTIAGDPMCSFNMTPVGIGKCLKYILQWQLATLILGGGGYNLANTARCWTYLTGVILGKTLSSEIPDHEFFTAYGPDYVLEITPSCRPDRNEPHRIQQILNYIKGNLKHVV

[5] = biological target: T2, Histone deacetylase 8 (Homo sapiens) (UniProt Q9BY41); experiment: Inhibition of HDAC8 in human HT-29 cells assessed as increase in SMC3 acetylation at 0.5 to 100 nM measured after 30 mins by western blot analysis; assay type: cell-based; conditions: dose 0.5-100 nM
T2 sequence (whole entry): T1 sequence (Q9BY41 whole entry)

Tubulin (Homo sapiens) [6] = biological target: T3, Tubulin (Homo sapiens) (UniProt P68371+Q9H4B7+P0DPH7+P68366+Q13509+Q71U36+P04350+Q3ZCM7+P07437+P68363+Q9BQE3+Q6PEY2+Q13885+Q9BVA1+Q9BUF5); experiment: Inhibition of tubulin polymerization (unknown origin) at 10 uM in presence of GTP; assay type: protein-complex assay
Tubulin (Homo sapiens) [7] = biological target: T3, Tubulin (Homo sapiens); experiment: Inhibition of tubulin polymerization in human HeLa cells assessed as microtubule network polymerization at 250 nM after 30 mins by immunofluorescence analysis; assay type: cell-based
Tubulin = experiment: Inhibition of tubulin polymerization in human HeLa cells assessed as microtubule network polymerization after 30 mins by immunofluorescence analysis; assay type: cell-based
[8] = Metabolic stability in rat liver microsomes assessed as half-life measured upto 6 hrs in presence of NADPH generating system by HPLC-MS/MS analysis; assay type: ADME, Microsome
[9] = Metabolic stability in rat liver microsomes assessed as intrinsic clearance per mg protein measured upto 6 hrs in presence of NADPH generating system by HPLC-MS/MS analysis; assay type: ADME, Microsome; conditions: read-out: CLH
[10] = Metabolic stability in human liver microsomes assessed as half-life measured upto 6 hrs in presence of NADPH generating system by HPLC-MS/MS analysis; assay type: ADME, Microsome
[11] = Antitumor activity against mouse MCA-205 cells allografted in female C57BL/6 mouse assessed as increase in overall survival at 0.25 to 0.5 mg/kg, IT(Intratumoral); assay type: functional; conditions: dose lower […], dose upper 0.5 mg/kg
MCA-205 = experiment: Antitumor activity against mouse MCA-205 cells allografted in female C57BL/6 mouse assessed as complete tumor regression at 0.5 mg/kg, IT(Intratumoral); assay type: functional, organism-based

COc1ccc(N(C)c2cc(C#N)nc3ccccc23)cc1/C=C/C(=O)NO
IC50 (NCI-N87): 0.1 nM | GI50 (HCT-116): 0.5 nM | IC50 (K562): 0.35 nM | IC50 (MIA PaCa-2): 0.94 nM | IC50 (A549): 0.84 nM | IC50 (MCF7): 0.78 nM | IC50 (MDA-MB-231): 0.7 nM | IC50 (HT-29 [1]): 0.62 nM | Activity (HT-29 [2]): Dde | Activity (HT-29 [3]): >95% | Activity (HT-29 [4]): Active | IC50 (Histone deacetylase 8): 150 nM | inhibition [5]: Active | inhibition (Tubulin (Homo sapiens) [6]): Active | inhibition (Tubulin (Homo sapiens) [7]): Active | IC50 (Tubulin): 20 nM | half-life [8]: 6.6 h | microsomal CLint [9]: 1.75 µL/min/mg | half-life [10]: 32 h | Activity [11]: 60% | Activity (MCA-205): Active
